Data from PubChem BioAssay AID1963874 (Molecular Pharmacology Branch, DTP, NCI, 2024).

System: 253994-281-T-J1-PDC KRAS-mutant spheroids with HUVEC/MSC, viability
Test: Anticancer human tumor 253994-281-T-J1-PDC patient-derived colorectal carcinoma cell line growth inhibition [KRAS2]
Conditions: for IC50: curve of first compound; for viability, T/C: stronger effect = lower value
Outline: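 Combination screen of spheroid viability in tumor-cell co-cultures with endothelial (HUVEC) and mesenchymal stem cell stroma. Each agent was tested in half-log dilutions, topping at clinical Cmax or at 10 microM without a known Cmax.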

[1] = second compound 0.1 µM, first compound 0.0316 µM
[2] = second compound 0.1 µM, first compound 0.1 µM
[3] = second compound 0.1 µM, first compound 0.316 µM
[4] = second compound 0.1 µM, first compound 1 µM
[5] = second compound 0.316 µM, first compound 0.0316 µM
[6] = second compound 0.316 µM, first compound 0.1 µM
[7] = second compound 0.316 µM, first compound 0.316 µM
[8] = second compound 0.316 µM, first compound 1 µM
[9] = second compound 1 µM, first compound 0.0316 µM
[10] = second compound 1 µM, first compound 0.1 µM
[11] = second compound 1 µM, first compound 0.316 µM
[12] = second compound 1 µM, first compound 1 µM
[13] = second compound 3.16 µM, first compound 0.0316 µM
[14] = second compound 3.16 µM, first compound 0.1 µM
[15] = second compound 3.16 µM, first compound 0.316 µM
[16] = second compound 3.16 µM, first compound 1 µM
[17] = second compound 10 µM, first compound 0.0316 µM
[18] = second compound 10 µM, first compound 0.1 µM
[19] = second compound 10 µM, first compound 0.316 µM
[20] = second compound 10 µM, first compound 1 µM
[21] = second compound 0.1 µM, first compound 3.16 µM
[22] = second compound 0.1 µM, first compound 10 µM
[23] = second compound 0.316 µM, first compound 3.16 µM
[24] = second compound 0.316 µM, first compound 10 µM
[25] = second compound 1 µM, first compound 3.16 µM
[26] = second compound 1 µM, first compound 10 µM
[27] = second compound 3.16 µM, first compound 3.16 µM
[28] = second compound 3.16 µM, first compound 10 µM
[29] = second compound 10 µM, first compound 3.16 µM
[30] = second compound 10 µM, first compound 10 µM
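Further: spheroids exposed to agents for seven days before readout.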
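Wherever viability, T/C is given: percent of DMSO vehicle control viability.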

SMILES	IC50 (second compound 0.1 µM)	IC50 (second compound 0.316 µM)	IC50 (second compound 1 µM)	IC50 (second compound 3.16 µM)	IC50 (second compound 10 µM)	viability, T/C [1]	viability, T/C [2]	viability, T/C [3]	viability, T/C [4]	viability, T/C [5]	viability, T/C [6]	viability, T/C [7]	viability, T/C [8]	viability, T/C [9]	viability, T/C [10]	viability, T/C [11]	viability, T/C [12]	viability, T/C [13]	viability, T/C [14]	viability, T/C [15]	also measured
CCN1CCN(Cc2ccc(Nc3ncc(F)c(-c4cc(F)c5nc(C)n(C(C)C)c5c4)n3)nc2)CC1 + COc1cc2nc(C)nc(NC(C)c3cc(N)cc(C(F)(F)F)c3)c2cc1OC1CCOC1	0.39 µM	0.317 µM	0.321 µM	0.236 µM	0.162 µM	83%	62.9%	55.3%	38.9%	74.3%	64.4%	51.3%	33.7%	74.7%	61.8%	53.3%	35.5%	70.8%	57.6%	53.3%	viability, T/C (second compound 0.1 µM, first compound 0.00316 µM): 102%; viability, T/C (second compound 0.1 µM, first compound 0.01 µM): 93.3%; viability, T/C (second compound 0.316 µM, first compound 0.00316 µM): 79.6%; viability, T/C (second compound 0.316 µM, first compound 0.01 µM): 86.8%; viability, T/C (second compound 1 µM, first compound 0.00316 µM): 80.4%; viability, T/C (second compound 1 µM, first compound 0.01 µM): 90.5%; viability, T/C (second compound 3.16 µM, first compound 0.00316 µM): 90.2%; viability, T/C (second compound 3.16 µM, first compound 0.01 µM): 73.9%; viability, T/C [16]: 29.4%; viability, T/C (second compound 10 µM, first compound 0.00316 µM): 78%; viability, T/C (second compound 10 µM, first compound 0.01 µM): 86.3%; viability, T/C [17]: 72.7%; viability, T/C [18]: 53.8%; viability, T/C [19]: 40.6%; viability, T/C [20]: 8.08%
O=C(c1cc(Cc2n[nH]c(=O)c3ccccc23)ccc1F)N1CCN(C(=O)C2CC2)CC1 + COc1cc2nc(C)nc(NC(C)c3cc(N)cc(C(F)(F)F)c3)c2cc1OC1CCOC1	> 10 µM	> 10 µM	> 10 µM	> 10 µM	> 10 µM	86.4%	88.5%	85.3%	91.2%	92.3%	82.5%	81.1%	94.3%	102%	87.7%	92.4%	103%	92.7%	90.5%	89.3%	viability, T/C [21]: 96.1%; viability, T/C [22]: 106%; viability, T/C [23]: 90.7%; viability, T/C [24]: 68.6%; viability, T/C [25]: 115%; viability, T/C [26]: 90.2%; viability, T/C [16]: 129%; viability, T/C [27]: 74.5%; viability, T/C [28]: 86.6%; viability, T/C [17]: 93.6%; viability, T/C [18]: 98.7%; viability, T/C [19]: 90.8%; viability, T/C [20]: 84.3%; viability, T/C [29]: 99%; viability, T/C [30]: 106%
CC1OCC2(CCN(c3cnc(Sc4ccnc(N)c4Cl)c(N)n3)CC2)C1N (stereo not given) + CNCc1ccccc1-c1csc(C(C)Nc2nc(C)nc3cc(OC)c(OC)cc23)c1	> 10 µM	> 10 µM	4.61 µM	< 0.0316 µM	< 0.0316 µM	93%	96.7%	93.3%	87.9%	94.7%	83.9%	85.6%	82.5%	90.3%	95.2%	78.7%	64.8%	43.8%	28%	31.1%	viability, T/C [21]: 79.1%; viability, T/C [22]: 51.8%; viability, T/C [23]: 68.1%; viability, T/C [24]: 51.8%; viability, T/C [25]: 60.9%; viability, T/C [26]: 36.5%; viability, T/C [16]: 31.2%; viability, T/C [27]: 24.8%; viability, T/C [28]: 0.81%; viability, T/C [17]: 0.21%; viability, T/C [18]: 0.25%; viability, T/C [19]: 0.22%; viability, T/C [20]: 0.19%; viability, T/C [29]: 0.23%; viability, T/C [30]: 0.21%
